Laboratory results as given in the NIST ThermoML archive (doi:10.1021/je500458e).
Numbers after ± are expanded uncertainties.

Experiment: mn = molality of the nth substance listed, in mol/kg
Settings: 298.15 K, Liquid

O=c1[nH]cnc2c1ncn2[C@H]1C[C@H](O)[C@@H](CO)O1 [2'-deoxyinosine] + O
speed of sound (100 kPa, m1 = 0.02199): 1498.1 ± 1.5 m/s | speed of sound (100 kPa, m1 = 0.02301): 1498.2 ± 1.5 m/s | speed of sound (100 kPa, m1 = 0.024): 1498.3 ± 1.5 m/s | speed of sound (100 kPa, m1 = 0.02493): 1498.3 ± 1.5 m/s | speed of sound (100 kPa, m1 = 0.02599): 1498.4 ± 1.5 m/s | speed of sound (100 kPa, m1 = 0.02701): 1498.5 ± 1.5 m/s | speed of sound (100 kPa, m1 = 0.02813): 1498.6 ± 1.5 m/s | speed of sound (100 kPa, m1 = 0.02896): 1498.6 ± 1.5 m/s | speed of sound (100 kPa, m1 = 0.02994): 1498.7 ± 1.5 m/s | speed of sound (10000 kPa, m1 = 0.02283): 1514.8 ± 0.64 m/s | speed of sound (10000 kPa, m1 = 0.0239): 1514.9 ± 0.64 m/s | speed of sound (10000 kPa, m1 = 0.02481): 1514.9 ± 0.64 m/s | speed of sound (10000 kPa, m1 = 0.02661): 1515 ± 0.64 m/s | speed of sound (10000 kPa, m1 = 0.02749): 1515.1 ± 0.64 m/s | speed of sound (10000 kPa, m1 = 0.02755): 1515.1 ± 0.64 m/s | speed of sound (10000 kPa, m1 = 0.02877): 1515.2 ± 0.64 m/s | speed of sound (10000 kPa, m1 = 0.02944): 1515.2 ± 0.64 m/s | speed of sound (20000 kPa, m1 = 0.02283): 1531.6 ± 0.64 m/s | speed of sound (20000 kPa, m1 = 0.0239): 1531.7 ± 0.64 m/s | speed of sound (20000 kPa, m1 = 0.02481): 1531.7 ± 0.64 m/s | speed of sound (20000 kPa, m1 = 0.02661): 1531.9 ± 0.64 m/s | speed of sound (20000 kPa, m1 = 0.02749): 1531.9 ± 0.64 m/s | speed of sound (20000 kPa, m1 = 0.02755): 1531.9 ± 0.64 m/s | speed of sound (20000 kPa, m1 = 0.02877): 1532 ± 0.64 m/s | speed of sound (20000 kPa, m1 = 0.02944): 1532 ± 0.64 m/s | speed of sound (40000 kPa, m1 = 0.02283): 1565.2 ± 0.64 m/s | speed of sound (40000 kPa, m1 = 0.0239): 1565.3 ± 0.64 m/s | speed of sound (40000 kPa, m1 = 0.02481): 1565.3 ± 0.64 m/s | speed of sound (40000 kPa, m1 = 0.02661): 1565.5 ± 0.64 m/s | speed of sound (40000 kPa, m1 = 0.02749): 1565.5 ± 0.64 m/s | speed of sound (40000 kPa, m1 = 0.02755): 1565.5 ± 0.64 m/s | speed of sound (40000 kPa, m1 = 0.02877): 1565.6 ± 0.64 m/s | speed of sound (40000 kPa, m1 = 0.02944): 1565.6 ± 0.64 m/s | speed of sound (60000 kPa, m1 = 0.02283): 1598.7 ± 0.64 m/s | speed of sound (60000 kPa, m1 = 0.0239): 1598.8 ± 0.64 m/s | speed of sound (60000 kPa, m1 = 0.02481): 1598.9 ± 0.64 m/s | speed of sound (60000 kPa, m1 = 0.02661): 1599 ± 0.64 m/s | speed of sound (60000 kPa, m1 = 0.02749): 1599 ± 0.64 m/s | speed of sound (60000 kPa, m1 = 0.02755): 1599 ± 0.64 m/s | speed of sound (60000 kPa, m1 = 0.02877): 1599.1 ± 0.64 m/s | speed of sound (60000 kPa, m1 = 0.02944): 1599.2 ± 0.64 m/s | speed of sound (80000 kPa, m1 = 0.02283): 1632.1 ± 0.64 m/s | speed of sound (80000 kPa, m1 = 0.0239): 1632.1 ± 0.65 m/s | speed of sound (80000 kPa, m1 = 0.02481): 1632.2 ± 0.65 m/s | speed of sound (80000 kPa, m1 = 0.02661): 1632.3 ± 0.65 m/s | speed of sound (80000 kPa, m1 = 0.02749): 1632.4 ± 0.65 m/s | speed of sound (80000 kPa, m1 = 0.02755): 1632.4 ± 0.65 m/s | speed of sound (80000 kPa, m1 = 0.02877): 1632.5 ± 0.65 m/s | speed of sound (80000 kPa, m1 = 0.02944): 1632.5 ± 0.65 m/s | speed of sound (100000 kPa, m1 = 0.02283): 1665.2 ± 0.65 m/s | speed of sound (100000 kPa, m1 = 0.0239): 1665.3 ± 0.65 m/s | speed of sound (100000 kPa, m1 = 0.02481): 1665.3 ± 0.65 m/s | speed of sound (100000 kPa, m1 = 0.02661): 1665.5 ± 0.65 m/s | speed of sound (100000 kPa, m1 = 0.02749): 1665.5 ± 0.65 m/s | speed of sound (100000 kPa, m1 = 0.02755): 1665.5 ± 0.65 m/s | speed of sound (100000 kPa, m1 = 0.02877): 1665.6 ± 0.65 m/s | speed of sound (100000 kPa, m1 = 0.02944): 1665.6 ± 0.65 m/s

Nc1nc(O)c2ncn([C@H]3C[C@H](O)[C@@H](CO)O3)c2n1 [2'-deoxyguanosine] + O
speed of sound (100 kPa, m1 = 0.009827): 1497.4 ± 1.5 m/s | speed of sound (100 kPa, m1 = 0.01011): 1497.4 ± 1.5 m/s | speed of sound (100 kPa, m1 = 0.01028): 1497.4 ± 1.5 m/s | speed of sound (100 kPa, m1 = 0.0103): 1497.4 ± 1.5 m/s | speed of sound (100 kPa, m1 = 0.01048): 1497.4 ± 1.5 m/s | speed of sound (100 kPa, m1 = 0.01051): 1497.4 ± 1.5 m/s | speed of sound (100 kPa, m1 = 0.01057): 1497.4 ± 1.5 m/s | speed of sound (100 kPa, m1 = 0.0107): 1497.5 ± 1.5 m/s | speed of sound (10000 kPa, m1 = 0.0103): 1514 ± 0.63 m/s | speed of sound (10000 kPa, m1 = 0.01043): 1514 ± 0.63 m/s | speed of sound (10000 kPa, m1 = 0.01048): 1514 ± 0.63 m/s | speed of sound (10000 kPa, m1 = 0.01059): 1514.1 ± 0.63 m/s | speed of sound (10000 kPa, m1 = 0.01062): 1514.1 ± 0.63 m/s | speed of sound (10000 kPa, m1 = 0.01068): 1514.1 ± 0.63 m/s | speed of sound (10000 kPa, m1 = 0.01075): 1514.1 ± 0.63 m/s | speed of sound (20000 kPa, m1 = 0.0103): 1530.8 ± 0.64 m/s | speed of sound (20000 kPa, m1 = 0.01036): 1530.8 ± 0.64 m/s | speed of sound (20000 kPa, m1 = 0.01043): 1530.8 ± 0.64 m/s | speed of sound (20000 kPa, m1 = 0.01048): 1530.8 ± 0.64 m/s | speed of sound (20000 kPa, m1 = 0.01059): 1530.9 ± 0.64 m/s | speed of sound (20000 kPa, m1 = 0.01062): 1530.9 ± 0.64 m/s | speed of sound (20000 kPa, m1 = 0.01068): 1530.9 ± 0.64 m/s | speed of sound (20000 kPa, m1 = 0.01075): 1530.9 ± 0.64 m/s | speed of sound (40000 kPa, m1 = 0.0103): 1564.4 ± 0.64 m/s | speed of sound (40000 kPa, m1 = 0.01036): 1564.4 ± 0.64 m/s | speed of sound (40000 kPa, m1 = 0.01043): 1564.4 ± 0.64 m/s | speed of sound (40000 kPa, m1 = 0.01048): 1564.4 ± 0.64 m/s | speed of sound (40000 kPa, m1 = 0.01062): 1564.4 ± 0.64 m/s | speed of sound (40000 kPa, m1 = 0.01075): 1564.4 ± 0.64 m/s | speed of sound (60000 kPa, m1 = 0.0103): 1597.9 ± 0.64 m/s | speed of sound (60000 kPa, m1 = 0.01036): 1597.9 ± 0.64 m/s | speed of sound (60000 kPa, m1 = 0.01043): 1597.9 ± 0.64 m/s | speed of sound (60000 kPa, m1 = 0.01048): 1597.9 ± 0.64 m/s | speed of sound (60000 kPa, m1 = 0.01059): 1597.9 ± 0.64 m/s | speed of sound (60000 kPa, m1 = 0.01062): 1597.9 ± 0.64 m/s | speed of sound (60000 kPa, m1 = 0.01068): 1597.9 ± 0.64 m/s | speed of sound (60000 kPa, m1 = 0.01075): 1597.9 ± 0.64 m/s | speed of sound (80000 kPa, m1 = 0.0103): 1631.3 ± 0.65 m/s | speed of sound (80000 kPa, m1 = 0.01036): 1631.3 ± 0.64 m/s | speed of sound (80000 kPa, m1 = 0.01043): 1631.3 ± 0.64 m/s | speed of sound (80000 kPa, m1 = 0.01048): 1631.3 ± 0.64 m/s | speed of sound (80000 kPa, m1 = 0.01059): 1631.3 ± 0.64 m/s | speed of sound (80000 kPa, m1 = 0.01062): 1631.3 ± 0.64 m/s | speed of sound (80000 kPa, m1 = 0.01068): 1631.3 ± 0.64 m/s | speed of sound (80000 kPa, m1 = 0.01075): 1631.3 ± 0.64 m/s | speed of sound (100000 kPa, m1 = 0.0103): 1664.4 ± 0.65 m/s | speed of sound (100000 kPa, m1 = 0.01036): 1664.4 ± 0.65 m/s | speed of sound (100000 kPa, m1 = 0.01043): 1664.4 ± 0.65 m/s | speed of sound (100000 kPa, m1 = 0.01048): 1664.4 ± 0.65 m/s | speed of sound (100000 kPa, m1 = 0.01059): 1664.5 ± 0.65 m/s | speed of sound (100000 kPa, m1 = 0.01062): 1664.5 ± 0.65 m/s | speed of sound (100000 kPa, m1 = 0.01068): 1664.5 ± 0.65 m/s | speed of sound (100000 kPa, m1 = 0.01075): 1664.5 ± 0.65 m/s
